Experimental data taken from PubChem BioAssay AID272 (DTP/NCI, 2004).
Where “and” joins values, the source holds several entries; their conditions need not be identical. Equal values may be shown once. Results filed as inconclusive are left out.

Tested on: Lewis lung carcinoma i.m., BDF1 mice, T/C %
Test: NCI In Vivo Anticancer Drug Screen. Data for tumor model Lewis Lung Carcinoma (intramuscular) in B6D2F1 (BDF1) mice
How it was run: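 Mice carrying transplantable tumours received test compound. Survival or tumour size was recorded and expressed as the treated-group value (T) divided by the vehicle-treated control-group value (C).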

[1] = endpoint: mean tumor weight (est.), dose: 12.5 mg/kg/injection, schedule: Q01DX011 (ip), vehicle: saline with Tween-80, higher = larger tumour
[2] = endpoint: mean tumor weight (est.), dose: 25.0 mg/kg/injection, schedule: Q01DX011 (ip), vehicle: saline with Tween-80, higher = larger tumour
[3] = endpoint: median survival time, dose: 25.0 mg/kg/injection, schedule: Q01DX011 (ip), vehicle: saline with Tween-80, higher = longer survival
[4] = endpoint: median survival time, dose: 50.0 mg/kg/injection, schedule: Q01DX011 (ip), vehicle: saline, higher = longer survival

With `CCCCOc1ccc(NC(N)=Nc2ccc(Cl)cc2)cc1` the T/C (endpoint: mean tumor weight (est.), dose: 3.12 mg/kg/injection, schedule: Q01DX011 (ip), vehicle: saline with Tween-80, higher = larger tumour) was 118 % of control, the T/C (endpoint: mean tumor weight (est.), dose: 6.25 mg/kg/injection, schedule: Q01DX011 (ip), vehicle: saline with Tween-80, higher = larger tumour) was 101 % of control and the T/C [1] was 67 % of control. The T/C [2] was 58 % of control, the T/C (endpoint: median survival time, dose: 3.12 mg/kg/injection, schedule: Q01DX011 (ip), vehicle: saline with Tween-80, higher = longer survival) was 97 % of control and the T/C (endpoint: median survival time, dose: 6.25 mg/kg/injection, schedule: Q01DX011 (ip), vehicle: saline with Tween-80, higher = longer survival) was 123 % of control. The T/C (endpoint: median survival time, dose: 12.5 mg/kg/injection, schedule: Q01DX011 (ip), vehicle: saline with Tween-80, higher = longer survival) was 102 % of control and the T/C [3] was 104 % of control.

With `O=c1ccc2nc3ccccc3sc-2c1` the T/C [1] was 73 % of control, the T/C [2] was 75 % of control and the T/C (endpoint: mean tumor weight (est.), dose: 50.0 mg/kg/injection, schedule: Q01DX011 (ip), vehicle: saline with Tween-80, higher = larger tumour) was 78 % of control. For the same molecule, the T/C (endpoint: mean tumor weight (est.), dose: 100.0 mg/kg/injection, schedule: Q01DX011 (ip), vehicle: saline with Tween-80, higher = larger tumour) was 42 % of control and the T/C [3] was 89 % of control.

`CN(Cc1ccccc1)/N=N/c1nc[nH]c1C(N)=O` was tested, and the T/C (endpoint: mean tumor weight, dose: 50.0 mg/kg/injection, schedule: Q01DX011 (ip), vehicle: saline, higher = larger tumour) was 64 % of control and the T/C [4] was 91 % of control.

In the case of `NC1CONC1=O` (stereo unspecified), the T/C (endpoint: mean tumor weight (est.), dose: 50.0 mg/kg/injection, schedule: Q01DX011 (ip), vehicle: saline, higher = larger tumour) was 95 % of control, the T/C (endpoint: mean tumor weight (est.), dose: 100.0 mg/kg/injection, schedule: Q01DX011 (ip), vehicle: saline, higher = larger tumour) was 93 % of control and the T/C (endpoint: mean tumor weight (est.), dose: 200.0 mg/kg/injection, schedule: Q01DX011 (ip), vehicle: saline, higher = larger tumour) was 84 % of control. The T/C (endpoint: mean tumor weight (est.), dose: 400.0 mg/kg/injection, schedule: Q01DX011 (ip), vehicle: saline, higher = larger tumour) was 76 % of control, the T/C [4] was 94 % of control and the T/C (endpoint: median survival time, dose: 100.0 mg/kg/injection, schedule: Q01DX011 (ip), vehicle: saline, higher = longer survival) was 106 % of control. For the same molecule, the T/C (endpoint: median survival time, dose: 200.0 mg/kg/injection, schedule: Q01DX011 (ip), vehicle: saline, higher = longer survival) was 106 % of control and the T/C (endpoint: median survival time, dose: 400.0 mg/kg/injection, schedule: Q01DX011 (ip), vehicle: saline, higher = longer survival) was 124 % of control.

`N[C@@H](Cc1ccc(N(CCCl)CCCl)cc1)C(=O)O` was tested, and the T/C (endpoint: mean tumor weight, dose: 0.38 mg/kg/injection, schedule: Q01DX011 (ip), vehicle: other, higher = larger tumour) was 55 % of control, the T/C (endpoint: mean tumor weight, dose: 0.38 mg/kg/injection, schedule: Q01DX011 (ip), vehicle: saline, higher = larger tumour) was 86 % of control and the T/C (endpoint: mean tumor weight, dose: 0.75 mg/kg/injection, schedule: Q01DX011 (ip), vehicle: other, higher = larger tumour) was 48 % of control. The T/C (endpoint: mean tumor weight, dose: 0.75 mg/kg/injection, schedule: Q01DX011 (ip), vehicle: saline, higher = larger tumour) was 77 % of control, the T/C (endpoint: mean tumor weight, dose: 1.5 mg/kg/injection, schedule: Q01DX011 (ip), vehicle: other, higher = larger tumour) was 69 % of control and the T/C (endpoint: mean tumor weight, dose: 3.0 mg/kg/injection, schedule: Q01DX011 (ip), vehicle: other, higher = larger tumour) was 29 % of control. The T/C (endpoint: mean tumor weight, dose: 3.0 mg/kg/injection, schedule: Q01DX011 (ip), vehicle: saline, higher = larger tumour) was 47 % of control and 59 % of control, the T/C (endpoint: median survival time, dose: 0.38 mg/kg/injection, schedule: Q01DX011 (ip), vehicle: other, higher = longer survival) was 111 % of control and the T/C (endpoint: median survival time, dose: 0.38 mg/kg/injection, schedule: Q01DX011 (ip), vehicle: saline, higher = longer survival) was 105 % of control and 112 % of control. The T/C (endpoint: median survival time, dose: 0.6 mg/kg/injection, schedule: Q01DX011 (ip), vehicle: saline, higher = longer survival) was 104 % of control and 116 % of control, the T/C (endpoint: median survival time, dose: 0.75 mg/kg/injection, schedule: Q01DX011 (ip), vehicle: other, higher = longer survival) was 118 % of control and the T/C (endpoint: median survival time, dose: 0.75 mg/kg/injection, schedule: Q01DX011 (ip), vehicle: saline, higher = longer survival) was 110 % of control and 112 % of control and 120 % of control. The T/C (endpoint: median survival time, dose: 1.2 mg/kg/injection, schedule: Q01DX011 (ip), vehicle: saline, higher = longer survival) was 108 % of control, the T/C (endpoint: median survival time, dose: 1.5 mg/kg/injection, schedule: Q01DX011 (ip), vehicle: other, higher = longer survival) was 101 % of control and the T/C (endpoint: median survival time, dose: 1.5 mg/kg/injection, schedule: Q01DX011 (ip), vehicle: saline, higher = longer survival) was 91 % of control. For the same molecule, the T/C (endpoint: median survival time, dose: 2.5 mg/kg/injection, schedule: Q01DX011 (ip), vehicle: saline, higher = longer survival) was 103 % of control, the T/C (endpoint: median survival time, dose: 3.24 mg/kg/injection, schedule: Q01DX001 (ip), vehicle: saline, higher = longer survival) was 108 % of control and the T/C (endpoint: median survival time, dose: 5.4 mg/kg/injection, schedule: Q01DX001 (ip), vehicle: saline, higher = longer survival) was 119 % of control.
